According to the supplement of paper PMC12137928:
Structures can show the parent of a compound that is named as a salt.

Test system: HCT116
Settings: 72 h
How it was run: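 Luminescence was read with CellTiter-Glo in HCT116 cells seeded at 250 per well in 1536-well plates. Signals were scaled between vehicle at 0% and positive control at -100%, then pattern-corrected. IC50 and maximal efficacy were obtained by fitting a four-parameter Hill equation.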

Row | Compound | IC50 cell viability (ICRF193 0 nM) | IC50 cell viability (ICRF193 200 nM)
1 | CCN1C(=O)NC(c2ccccc2)C1=O (centres undefined) [Ethotoin] | > 45.8 µM | > 45.8 µM
2 | CCOc1ccc2c(c1)C(C)=CC(C)(C)N2 [Ethoxyquin] | > 45.8 µM | > 45.8 µM
3 | CCOc1ccc2nc(S(N)(=O)=O)sc2c1 [Ethoxzolamide] | > 45.8 µM | > 45.8 µM
4 | CCOC(=O)c1cccc(N)c1 [Ethyl 3-aminobenzoate methanesulfonic acid salt] | > 45.8 µM | > 45.8 µM
5 | CCCCC/C=C\C/C=C\CCCCCCCC(=O)OCC [Ethyl linoleate] | > 45.8 µM | > 45.8 µM
6 | CCOC(=O)c1ccccc1O [Ethyl salicylate] | > 45.8 µM | > 45.8 µM
7 | CC[C@]1(O)CC[C@H]2[C@@H]3CCC4=CCCC[C@@H]4[C@H]3CC[C@@]21C [Ethylestrenol] | > 45.8 µM | > 45.8 µM
8 | CCOc1ccc2c3c1O[C@H]1[C@@H](O)C=C[C@H]4[C@@H](C2)N(C)CC[C@@]341 [Ethylmorphine] | > 45.8 µM | > 45.8 µM
9 | CCOC(=O)c1ccc(O)cc1 [Ethylparaben] | > 45.8 µM | > 45.8 µM
10 | CCCN(CC)C(CC)C(=O)Nc1c(C)cccc1C (centres undefined) [Etidocaine] | > 45.8 µM | > 45.8 µM
11 | CC(O)(P(=O)(O)O)P(=O)(O)O [Etidronate disodium] | > 45.8 µM | > 45.8 µM
12 | CCC(CN)=C(c1ccccc1)c1ccccc1 [Etifelmine hydrochloride] | > 45.8 µM | > 45.8 µM
13 | CCc1cccc(CC)c1NC(=O)CN(CC(=O)O)CC(=O)O [Etifenin] | > 45.8 µM | > 45.8 µM
14 | CCNCC(O)c1cccc(O)c1 (centres undefined) [Etilefrine hydrochloride] | > 45.8 µM | > 45.8 µM
15 | CCc1cc2c(s1)-n1c(C)nnc1CN=C2c1ccccc1Cl [Etizolam] | > 45.8 µM | > 45.8 µM
16 | CCc1cccc2c3c([nH]c12)C(CC)(CC(=O)O)OCC3 (centres undefined) [Etodolac] | > 45.8 µM | > 45.8 µM

Row | Compound | IC50 cell viability (ICRF193 0 nM) | IC50 cell viability (ICRF193 200 nM)
17 | CCOC(=O)c1cncn1[C@H](C)c1ccccc1 [Etomidate] | > 45.8 µM | > 45.8 µM
18 | CCN1C(=O)c2ccccc2C1Nc1ccc(OCCN2CCCCC2)cc1 (centres undefined) [Etomidoline] | > 45.8 µM | > 45.8 µM
19 | C#C[C@]1(O)CC[C@H]2[C@@H]3CCC4=CC(=O)CC[C@@H]4[C@H]3C(=C)C[C@@]21CC [Etonogestrel] | > 45.8 µM | > 45.8 µM
20 | Cc1ccc(-c2ncc(Cl)cc2-c2ccc(S(C)(=O)=O)cc2)cn1 [Etoricoxib] | > 45.8 µM | > 45.8 µM
21 | CCOC(=O)/C=C(C)/C=C/C=C(C)/C=C/c1c(C)cc(OC)c(C)c1C [Etretinate] | > 45.8 µM | > 45.8 µM
22 | C=CCc1ccc(O)c(OC)c1 [Eugenol] | > 45.8 µM | > 45.8 µM
23 | CO[C@H]1C[C@@H]2CC[C@@H](C)[C@@](O)(O2)C(=O)C(=O)N2CCCC[C@H]2C(=O)O[C@H]([C@H](C)C[C@@H]2CC[C@@H](OCCO)[C@H](OC)C2)CC(=O)[C@H](C)/C=C(\C)[C@@H](O)[C@@H](OC)C(=O)[C@H](C)C[C@H](C)/C=C/C=C/C=C/1C [Everolimus] | > 45.8 µM | > 45.8 µM
24 | CCCCCCOc1ccccc1C(N)=O [Exalamide] | > 45.8 µM | > 45.8 µM
25 | C/C(=N\O)C(C)NCC(C)(C)CNC(C)/C(C)=N/O (centres undefined) [Exametazime] | > 45.8 µM | > 45.8 µM
26 | C=C1C[C@@H]2[C@H](CC[C@]3(C)C(=O)CC[C@@H]23)[C@@]2(C)C=CC(=O)C=C12 [Exemestane] | > 45.8 µM | > 45.8 µM
27 | O=C1[C@H](CC[C@H](O)c2ccc(F)cc2)[C@@H](c2ccc(O)cc2)N1c1ccc(F)cc1 [Ezetimibe] | > 45.8 µM | > 45.8 µM
28 | CC(C)C(=O)Oc1ccc(CO)cc1[C@H](CCN(C(C)C)C(C)C)c1ccccc1 [FESOTERODINE FUMARATE] | > 45.8 µM | > 45.8 µM
29 | CC1(C)OC(=O)C(OCC2CC2)=C1c1ccc(S(C)(=O)=O)cc1 [FIROCOXIB] | > 45.8 µM | > 45.8 µM
30 | O=c1[nH]c2ccccc2n1CCN1CCN(c2cccc(C(F)(F)F)c2)CC1 [FLIBANSERIN] | > 45.8 µM | > 45.8 µM
31 | CCCCCCCCCC(=O)OCCN1CCN(CC/C=C2\c3ccccc3Sc3ccc(C(F)(F)F)cc32)CC1 [FLUPENTIXOL DECANOATE] | > 45.8 µM | > 45.8 µM
32 | C[C@@H]1O[C@@H]1P(=O)(O)O [FOSFOMYCIN] | > 45.8 µM | > 45.8 µM
